Source: patent publication US20170239237A1, “PYRROLOQUINOLINE DERIVATIVES AS 5-HT6 ANTAGONISTS, PREPARATION METHOD AND USE THEREOF” (Uniwersytet Jagiellonski, priority 2013, published 2017)
pKi: −log10 of the molar value. Read-outs that look alike come from different tables or passages of the source.

What was measured:
dopamine D2L receptor = dopamine D2L receptor (Homo sapiens, UniProt P14416); assay: Radioligand binding, D2 ([3H]-raclopride displacement)
5-HT1A receptor = target: T1, 5-HT1A receptor (Homo sapiens, UniProt P08908); assay: Radioligand binding, 5-HT1A ([3H]-8-OH-DPAT displacement)
T1 sequence (P08908 1-422): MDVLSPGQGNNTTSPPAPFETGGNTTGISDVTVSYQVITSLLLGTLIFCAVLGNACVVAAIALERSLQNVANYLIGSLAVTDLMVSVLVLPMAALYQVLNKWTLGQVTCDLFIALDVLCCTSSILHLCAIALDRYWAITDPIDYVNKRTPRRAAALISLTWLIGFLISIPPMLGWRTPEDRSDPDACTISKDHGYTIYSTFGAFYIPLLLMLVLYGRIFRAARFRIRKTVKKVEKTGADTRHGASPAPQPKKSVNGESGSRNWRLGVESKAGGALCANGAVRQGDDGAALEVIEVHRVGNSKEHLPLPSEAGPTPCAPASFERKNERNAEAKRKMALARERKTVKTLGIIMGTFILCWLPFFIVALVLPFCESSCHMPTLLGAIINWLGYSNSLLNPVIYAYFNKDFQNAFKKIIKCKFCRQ

5-HT7 receptor = 5-HT7 receptor (Homo sapiens, UniProt P34969); assay: Radioligand binding, 5-HT7 ([3H]-5-CT displacement)
5-HT6 receptor [1] = target: T2, 5-HT6 receptor (Homo sapiens, UniProt P50406); assay: Radioligand binding, 5-HT6 ([3H]-LSD displacement)
5-HT6 receptor [2] = target: T2, 5-HT6 receptor; assay: CHO-human-5HT6-Aequorin functional assay (ago-/antagonism); settings: test concentration not given; for % inhibition of control agonist response: agonist effect, CHO-human-5HT6-Aequorin cells; for % inhibition of control antagonist response: antagonist effect vs 10^-6 M α-methylserotonin induced luminescence
[3] = read-out: Ki 5-HT6, cloned human receptor in HEK293, three independent experiments, SEM ± 22%

T2 sequence (P50406 whole entry): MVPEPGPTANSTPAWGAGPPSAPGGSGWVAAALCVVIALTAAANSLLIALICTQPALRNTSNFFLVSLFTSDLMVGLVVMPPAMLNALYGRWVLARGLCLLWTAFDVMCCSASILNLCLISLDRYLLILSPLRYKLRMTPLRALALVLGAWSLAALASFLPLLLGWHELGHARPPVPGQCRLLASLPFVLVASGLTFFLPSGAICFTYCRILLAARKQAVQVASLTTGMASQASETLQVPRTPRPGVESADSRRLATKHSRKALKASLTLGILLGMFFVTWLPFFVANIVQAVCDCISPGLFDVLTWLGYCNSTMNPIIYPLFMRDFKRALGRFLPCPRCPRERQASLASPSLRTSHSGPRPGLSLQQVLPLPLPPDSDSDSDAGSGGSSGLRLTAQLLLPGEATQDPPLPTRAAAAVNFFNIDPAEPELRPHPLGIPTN
dopamine D2L receptor, sequence (P14416 whole entry): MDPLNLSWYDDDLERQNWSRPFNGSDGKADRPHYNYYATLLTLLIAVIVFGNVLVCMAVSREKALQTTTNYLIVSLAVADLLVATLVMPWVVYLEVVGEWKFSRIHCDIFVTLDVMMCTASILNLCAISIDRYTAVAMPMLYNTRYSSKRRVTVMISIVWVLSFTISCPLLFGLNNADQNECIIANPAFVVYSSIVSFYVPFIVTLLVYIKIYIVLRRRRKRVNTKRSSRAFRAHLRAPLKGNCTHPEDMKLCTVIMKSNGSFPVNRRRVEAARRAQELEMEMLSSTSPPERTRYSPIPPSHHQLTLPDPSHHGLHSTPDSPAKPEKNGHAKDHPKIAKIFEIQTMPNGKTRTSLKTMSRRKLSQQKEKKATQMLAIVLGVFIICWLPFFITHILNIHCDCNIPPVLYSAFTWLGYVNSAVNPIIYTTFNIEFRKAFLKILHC
5-HT7 receptor, sequence (P34969 1-432 limits assumed): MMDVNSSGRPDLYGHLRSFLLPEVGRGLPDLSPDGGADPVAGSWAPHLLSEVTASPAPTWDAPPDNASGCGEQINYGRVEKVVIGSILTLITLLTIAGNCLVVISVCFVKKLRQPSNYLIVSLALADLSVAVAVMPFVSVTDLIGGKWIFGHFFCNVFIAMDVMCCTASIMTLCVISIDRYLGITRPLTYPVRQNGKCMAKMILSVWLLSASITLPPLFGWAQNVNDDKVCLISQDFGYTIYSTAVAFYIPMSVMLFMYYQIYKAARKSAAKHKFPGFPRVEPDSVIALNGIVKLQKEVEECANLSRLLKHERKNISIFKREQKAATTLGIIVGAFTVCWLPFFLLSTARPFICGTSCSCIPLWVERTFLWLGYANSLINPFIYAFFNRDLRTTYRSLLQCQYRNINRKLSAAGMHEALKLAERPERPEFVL

| SMILES | pKi (dopamine D2L receptor) | pKi (5-HT1A receptor) | pKi (5-HT7 receptor) | pKi (5-HT6 receptor [1]) | other results |
| --- | --- | --- | --- | --- | --- |
| CN1CCN(c2nc3ccccc3c3c2ccn3S(=O)(=O)c2ccccc2)CC1 [Compound 53, 1-(phenylsulfonyl)-4-(4-methylpiperazin-1-yl)-1H-pyrrolo[3,2-c]quinoline] | 6.47 | 6.90 | 5.42 |  |  |
| CN1CCN(c2nc3ccccc3c3c2ccn3S(=O)(=O)c2cccc3ccccc23)CC1 [Compound 58, 1-(naphthalen-1-ylsulfonyl)-4-(4-methylpiperazin-1-yl)-1H-pyrrolo[3,2-c]quinoline] | 6.08 | 6.68 |  | 7.44 |  |
| CN1CCN(c2nc3ccccc3c3c2ccn3S(=O)(=O)c2cccc(F)c2)CC1 [Compound 55, 1-((3-fluorophenyl)sulfonyl)-4-(4-methylpiperazin-1-yl)-1H-pyrrolo[3,2-c]quinoline] | 6.05 | 6.19 | 5.08 |  |  |
| O=S(=O)(c1ccccc1)n1ccc2c(N3CCNCC3)nc3ccccc3c21 [Compound 27, 1-(phenylsulfonyl)-4-(piperazin-1-yl)-1H-pyrrolo[3,2-c]quinoline] | 5.95 | 6.53 |  |  |  |
| O=S(=O)(c1cccc2cccnc12)n1ccc2c(N3CCCCC3)nc3ccccc3c21 [Compound 77, 1-(quinolin-8-ylsulfonyl)-4-(piperidin-1-yl)-1H-pyrrolo[3,2-c]quinoline] | 5.23 | 4.07 | 4.57 | 6.73 |  |
| CN1CCN(c2nc3ccccc3c3c2ccn3S(=O)(=O)c2ccc(F)cc2)CC1 [Compound 56, 1-((4-fluorophenyl)sulfonyl)-4-(4-methylpiperazin-1-yl)-1H-pyrrolo[3,2-c]quinoline] | 6.41 | 6.82 |  |  |  |
| O=S(=O)(c1ccccc1Br)n1ccc2c(N3CCNCC3)nc3ccccc3c21 [Compound 28, 1-((2-bromophenyl)sulfonyl)-4-(piperazin-1-yl)-1H-pyrrolo[3,2-c]quinoline] | 5.15 | 5.91 | 5.10 | 8.52 |  |
| Cc1ccc2sc(S(=O)(=O)n3ccc4c(NC5CCNC5)nc5ccccc5c43)cc2c1 (stereo not shown) [Compound 23, 1-((5-methylbenzo[b]thiophen-2-yl)sulfonyl)-N-(pyrrolidin-3-yl)-1H-pyrrolo[3,2-c]quinolin-4-amine] | 5.81 | 4.72 | 5.88 | 7.03 |  |
| COc1cccc(S(=O)(=O)n2ccc3c(N4CCNCC4)nc4ccccc4c32)c1 [Compound 37, 1-((3-methoxyphenyl)sulfonyl)-4-(piperazin-1-yl)-1H-pyrrolo[3,2-c]quinoline] | 5.15 | 6.43 | 5.28 |  |  |
| O=S(=O)(c1ccc(C(F)(F)F)cc1)n1ccc2c(N3CCNCC3)nc3ccccc3c21 [Compound 36, 1-((4-(trifluoromethyl)phenyl)sulfonyl)-4-(piperazin-1-yl)-1H-pyrrolo[3,2-c]quinoline] | 4.88 | 6.71 | 5.64 |  | pKi (5-HT6 receptor [1]; [3]): 7.47 |
| O=S(=O)(c1cccc2cccnc12)n1ccc2c(N3CCN(Cc4ccccc4)CC3)nc3ccccc3c21 [Compound 62, 1-(quinolin-8-ylsulfonyl)-4-(4-benzylpiperazin-1-yl)-1H-pyrrolo[3,2-c]quinoline] | 5.83 | 5.45 | 5.23 | 7.18 |  |
| CN1CCN(c2nc3ccccc3c3c2ccn3S(=O)(=O)c2ccc(N)cc2)CC1 [Compound 57, 1-((4-aminophenyl)sulfonyl)-4-(4-methylpiperazin-1-yl)-1H-pyrrolo[3,2-c]quinoline] |  |  |  |  | % inhibition of control agonist response (5-HT6 receptor [2]): 1.5%; % inhibition of control antagonist response (5-HT6 receptor [2]): 97.3% |
| Cc1cccc(S(=O)(=O)n2ccc3c(N4CCNCC4)nc4ccccc4c32)c1 [Compound 39, 1-((3-methylphenyl)sulfonyl)-4-(piperazin-1-yl)-1H-pyrrolo[3,2-c]quinoline] |  |  |  |  | pKi (dopamine D2L receptor; read-out: Ki D2, cloned human receptor in HEK293, three independent experiments, SEM ± 22%): 5.67; pKi (5-HT1A receptor; read-out: Ki 5-HT1A, cloned human receptor in HEK293, three independent experiments, SEM ± 22%): 6.12; pKi (5-HT7 receptor; read-out: Ki 5-HT7): 5.38 |
| O=S(=O)(c1cccc(C(F)(F)F)c1)n1ccc2c(NC3CCNC3)nc3ccccc3c21 (stereo not shown) [Compound 14, 1-((3-(trifluoromethyl)phenyl)sulfonyl)-N-(pyrrolidin-3-yl)-1H-pyrrolo[3,2-c]quinolin-4-amine] | 5.89 |  | 5.42 | 8.15 | % inhibition of control agonist response (5-HT6 receptor [2]): 10.8%; % inhibition of control antagonist response (5-HT6 receptor [2]): 88.8% |
| O=S(=O)(c1cccc(Cl)c1)n1ccc2c(N3CCCCC3)nc3ccccc3c21 [Compound 76, 1-((3-chlorophenyl)sulfonyl)-4-(piperidin-1-yl)-1H-pyrrolo[3,2-c]quinoline] | 4.84 |  | 4.65 | 6.44 | % inhibition of control agonist response (5-HT6 receptor [2]): 22.2%; % inhibition of control antagonist response (5-HT6 receptor [2]): 11.6% |
| O=S(=O)(c1cc(F)ccc1F)n1ccc2c(N3CCNCC3)nc3ccccc3c21 [Compound 32, 1-((2,5-difluorophenyl)sulfonyl)-4-(piperazin-1-yl)-1H-pyrrolo[3,2-c]quinoline] | 5.29 | 6.62 | 5.11 |  |  |
| CN1CCN(c2nc3ccccc3c3c2ccn3S(=O)(=O)c2cccc(Cl)c2)CC1 [Compound 54, 1-((3-chlorophenyl)sulfonyl)-4-(4-methylpiperazin-1-yl)-1H-pyrrolo[3,2-c]quinoline] | 5.90 | 6.28 | 5.46 |  |  |
| O=S(=O)(c1ccc(F)c(F)c1)n1ccc2c(N3CCNCC3)nc3ccccc3c21 [Compound 33, 1-((3,4-difluorophenyl)sulfonyl)-4-(piperazin-1-yl)-1H-pyrrolo[3,2-c]quinolinee] | 5.75 | 6.51 | 5.30 |  |  |
| CN(C)CCNc1nc2ccccc2c2c1ccn2S(=O)(=O)c1ccccc1 [Compound 1, N1,N1-dimethyl-N2-(1-(phenylsulfonyl)-1H-pyrrolo[3,2-c]quinolin-4-yl)ethane-1,2-diamine] | 5.65 | 5.73 | 5.40 | 8.00 |  |
| O=S(=O)(c1ccccc1)n1ccc2c(N3CCN(Cc4ccccc4)CC3)nc3ccccc3c21 [Compound 60, 1-(phenylsulfonyl)-4-(4-benzylpiperazin-1-yl)-1H-pyrrolo[3,2-c]quinoline] | 6.38 | 4.48 | 5.63 | 6.66 |  |
| O=S(=O)(c1ccc(Cl)s1)n1ccc2c(N3CCNCC3)nc3ccccc3c21 [Compound 46, 1-((5-chlorothiophen-2-yl)sulfonyl)-4-(piperazin-1-yl)-1H-pyrrolo[3,2-c]quinoline] | 6.09 | 6.23 |  | 8.10 |  |
| O=S(=O)(c1ccc(Cl)s1)n1ccc2c(N3CCN(Cc4ccccc4)CC3)nc3ccccc3c21 [Compound 61, 1-((5-chlorothiophen-2-yl)sulfonyl)-4-(4-benzylpiperazin-1-yl)-1H-pyrrolo[3,2-c]quinoline] | 6.62 | 4.89 | 4.79 | 7.03 |  |
| O=S(=O)(c1ccc(F)cc1)n1ccc2c(N3CCNCC3)nc3ccccc3c21 [Compound 31, 1-((4-fluorophenyl)sulfonyl)-4-(piperazin-1-yl)-1H-pyrrolo[3,2-c]quinoline] | 5.23 | 6.67 | 5.19 |  | pKi (5-HT6 receptor [1]; [3]): 7.74 |
| O=S(=O)(c1cccc(Cl)c1)n1ccc2c(NC3CCNC3)nc3ccccc3c21 (stereo not shown) [Compound 5, 1-((3-chlorophenyl)sulfonyl)-N-(pyrrolidin-3-yl)-1H-pyrrolo[3,2-c]quinolin-4-amine] | 5.84 | 5.52 | 5.67 |  |  |
